For ten compounds, IC50 results are on record in PMC10379331, “Identification of a Putative SARS-CoV-2 Main Protease Inhibitor through In Silico Screening of Self-Designed Molecular Library” (International Journal of Molecular Sciences, 2023).

The term IC50 denotes the midpoint of a concentration-inhibition curve.

A value given as a limit tells only on which side of the number the result lay.

The first assay concerns the target M^pro protein (SARS-CoV-2 main protease) (Severe acute respiratory syndrome coronavirus 2, UniProt P0DTD1). Description: FRET-based in vitro enzymatic inhibition assay.
Conditions: not given
The assay is classed as biochemical.
As to `Cc1cn(-c2cc(NC(=O)c3ccc(C)c(Nc4nccc(-c5cccnc5)n4)c3)cc(C(F)(F)F)c2)cn1` [Nilotinib, reference compound], the IC50 turned out to be 19.9 ± 1.27 µM.

The same assay, now with this note: 0.2 μM M^pro, 20 μM substrate MCA-[…]-Lys(Dnp)-Lys-NH2, 30 min preincubation at 37 °C; read-out: IC50 Value.
Regarding `O=C(c1ccc(-c2cc(Nc3ccc(Cl)cc3Cl)ncn2)cc1)N1CCN(C(=O)c2ccccc2F)CC1` [Compound V159], the IC50 is greater than 20 µM.

As for `CCN(CC)C(=O)c1cncc(-c2cccc(C(=O)N[C@@H](C(=O)Nc3ccc(Cl)c(C(F)(F)F)c3)C(C)(C)C)c2)c1` [Compound V226], the IC50 was greater than 20 µM.

As to `Nc1nc2cc(-c3cn([C@@H]4CN[C@H](C(=O)Nc5ccc(Cl)c(C(F)(F)F)c5)C4)nn3)cnc2s1` [Compound V304], the IC50 was greater than 20 µM.

On to `CCC(=O)Nc1ccc(-c2cccc(C(=O)N[C@@H]3CN[C@H](C(=O)Nc4ccc(Cl)c(C(F)(F)F)c4)C3)c2)cn1` [Compound V139], for which the IC50 was greater than 20 µM.

As for `Nc1n[nH]c2cccc(-c3ccc(C(=O)N4CCN(C(=O)c5cccc(F)c5)CC4)cc3)c12` [Compound V205], the IC50 is greater than 20 µM.

Turning to `Nc1n[nH]c2cccc(-c3ccc(C(=O)NCCNC(=O)c4ccc(Br)cc4)cc3)c12` [Compound V111], the 50% inhibitory concentration (IC50) is greater than 20 µM.

For the compound `CC(=O)Nc1ccc(-c2ccc(C(=O)N[C@H](C(=O)Nc3ccc(Cl)c(C(F)(F)F)c3)C(C)(C)C)cc2)cn1` [Compound V231], the half-maximal inhibitory concentration (IC50) is greater than 20 µM.

Regarding `Nc1n[nH]c2cc(-c3cn([C@@H]4CN[C@H](C(=O)Nc5ccc(Cl)c(C(F)(F)F)c5)C4)nn3)ccc12` [Compound V291], the IC50 turned out to be 2.77 ± 0.56 µM.

For `CC(C)(C)OCC(NC(=O)c1ccc(-c2cncc(C(=O)NC3CC3)c2)cc1)C(=O)Nc1ccc(Cl)c(C(F)(F)F)c1` (stereo not shown) [Compound V243], the IC50 is greater than 20 µM.
